According to the supplement of paper PMC10307832:

Assays:
Experiment in all cases: relative viability (nuclei count vs DMSO), 5 days (fraction); higher = more cells survive
[1] = tested on: COR-L23
Summary of the method: (§1)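 Lung cancer cell lines, seeded in 1536-well plates, were treated the following day by pin tool with a single drug or with five library-drug doses (not always all listed) in √10 steps on top of a fixed anchor-drug dose. Cells were fixed and nuclei stained in one step after 5 days, and nuclei were counted. Relative viability is the nuclei count for treated wells divided by that for vehicle wells, reported as medians of duplicate plates.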

[2] = tested on: EPLC-272H
Summary of the method: as §1

[3] = tested on: HARA
Summary of the method: as §1

[4] = tested on: HCC-15
Summary of the method: as §1

[5] = tested on: HCC-78
Summary of the method: as §1

[6] = tested on: LC-2-ad
Summary of the method: as §1

[7] = tested on: LU99A
Summary of the method: as §1

[8] = tested on: NCI-H1651
Summary of the method: as §1

[9] = tested on: NCI-H1915
Summary of the method: as §1

[10] = tested on: NCI-H1993
Summary of the method: as §1

[11] = tested on: NCI-H2009
Summary of the method: as §1

[12] = tested on: NCI-H2085
Summary of the method: as §1

[13] = tested on: NCI-H2126
Summary of the method: as §1

[14] = tested on: NCI-H2347
Summary of the method: as §1

[15] = tested on: NCI-H460
Summary of the method: as §1

[16] = tested on: NCI-H838
Summary of the method: as §1

[17] = tested on: PC-14
Summary of the method: as §1

[18] = tested on: SW 1573
Summary of the method: as §1

[19] = tested on: UMC-11
Summary of the method: as §1

Compound: C[C@@H]1CN(CC(=O)Nc2ccc3c(c2)Cc2cccc(-c4cc(=O)cc(N5CCOCC5)o4)c2S3)C[C@H](C)O1 + CC1(C)CCC(c2ccc(Cl)cc2)=C(CN2CCN(c3ccc(C(=O)NS(=O)(=O)c4ccc(N[C@H](CCN5CCOCC5)CSc5ccccc5)c(S(=O)(=O)C(F)(F)F)c4)cc3)CC2)C1 [Navitoclax] (partner 0.5 µM)
- relative viability ([1]; first compound 0.04 µM): 1.25
- relative viability ([1]; first compound 0.1265 µM): 0.985
- relative viability ([1]; first compound 0.4 µM): 1.17
- relative viability ([1]; first compound 4 µM): 0.962
- relative viability ([2]; first compound 0.04 µM): 1.09
- relative viability ([2]; first compound 0.1265 µM): 0.935
- relative viability ([2]; first compound 0.4 µM): 1.11
- relative viability ([2]; first compound 4 µM): 0.911
- relative viability ([3]; first compound 0.04 µM): 1.2
- relative viability ([3]; first compound 0.1265 µM): 1.12
- relative viability ([3]; first compound 0.4 µM): 1.21
- relative viability ([3]; first compound 4 µM): 1.14
- relative viability ([4]; first compound 0.04 µM): 0.7
- relative viability ([4]; first compound 0.1265 µM): 0.639
- relative viability ([4]; first compound 0.4 µM): 0.682
- relative viability ([4]; first compound 4 µM): 0.556
- relative viability ([5]; first compound 0.04 µM): 0.668
- relative viability ([5]; first compound 0.1265 µM): 0.706
- relative viability ([5]; first compound 0.4 µM): 0.69
- relative viability ([5]; first compound 4 µM): 0.914
- relative viability ([6]; first compound 0.04 µM): 0.587
- relative viability ([6]; first compound 0.1265 µM): 0.46
- relative viability ([6]; first compound 0.4 µM): 0.336
- relative viability ([6]; first compound 4 µM): 0.29
- relative viability ([7]; first compound 0.04 µM): 0.856
- relative viability ([7]; first compound 0.1265 µM): 0.758
- relative viability ([7]; first compound 0.4 µM): 0.926
- relative viability ([7]; first compound 4 µM): 0.821
- relative viability ([8]; first compound 0.04 µM): 1.05
- relative viability ([8]; first compound 0.1265 µM): 0.987
- relative viability ([8]; first compound 0.4 µM): 0.836
- relative viability ([8]; first compound 4 µM): 1.03
- relative viability ([9]; first compound 0.04 µM): 0.792
- relative viability ([9]; first compound 0.1265 µM): 0.789
- relative viability ([9]; first compound 0.4 µM): 0.796
- relative viability ([9]; first compound 4 µM): 0.753
- relative viability ([10]; first compound 0.04 µM): 0.933
- relative viability ([10]; first compound 0.1265 µM): 0.868
- relative viability ([10]; first compound 0.4 µM): 0.644
- relative viability ([10]; first compound 4 µM): 0.865
- relative viability ([11]; first compound 0.04 µM): 1.17
- relative viability ([11]; first compound 0.1265 µM): 1.1
- relative viability ([11]; first compound 0.4 µM): 1.15
- relative viability ([11]; first compound 4 µM): 0.915
- relative viability ([12]; first compound 0.04 µM): 1.23
- relative viability ([12]; first compound 0.1265 µM): 1.18
- relative viability ([12]; first compound 0.4 µM): 1.02
- relative viability ([12]; first compound 4 µM): 0.827
- relative viability ([13]; first compound 0.04 µM): 0.879
- relative viability ([13]; first compound 0.1265 µM): 0.868
- relative viability ([13]; first compound 0.4 µM): 0.808
- relative viability ([13]; first compound 4 µM): 0.851
- relative viability ([14]; first compound 0.04 µM): 0.768
- relative viability ([14]; first compound 0.1265 µM): 0.81
- relative viability ([14]; first compound 0.4 µM): 0.769
- relative viability ([14]; first compound 4 µM): 0.672
- relative viability ([15]; first compound 0.04 µM): 1.07
- relative viability ([15]; first compound 0.1265 µM): 1.17
- relative viability ([15]; first compound 0.4 µM): 1.22
- relative viability ([15]; first compound 4 µM): 0.955
- relative viability ([16]; first compound 0.04 µM): 1.17
- relative viability ([16]; first compound 0.1265 µM): 1.16
- relative viability ([16]; first compound 0.4 µM): 1.07
- relative viability ([16]; first compound 4 µM): 0.896
- relative viability ([17]; first compound 0.04 µM): 1.04
- relative viability ([17]; first compound 0.1265 µM): 0.987
- relative viability ([17]; first compound 0.4 µM): 1.01
- relative viability ([17]; first compound 4 µM): 0.797
- relative viability ([18]; first compound 0.04 µM): 0.979
- relative viability ([18]; first compound 0.1265 µM): 1.05
- relative viability ([18]; first compound 0.4 µM): 0.846
- relative viability ([18]; first compound 4 µM): 0.842
- relative viability ([19]; first compound 0.04 µM): 0.32
- relative viability ([19]; first compound 0.1265 µM): 0.288
- relative viability ([19]; first compound 0.4 µM): 0.301
- relative viability ([19]; first compound 4 µM): 0.229

Compound: CC(C)Oc1cc(Nc2nc(N[C@@H](C)c3ccc(F)cn3)ncc2Cl)n[nH]1 [AZ23] + CC1(C)CCC(c2ccc(Cl)cc2)=C(CN2CCN(c3ccc(C(=O)NS(=O)(=O)c4ccc(N[C@H](CCN5CCOCC5)CSc5ccccc5)c(S(=O)(=O)C(F)(F)F)c4)cc3)CC2)C1 [Navitoclax] (partner 0.5 µM)
- relative viability ([1]; first compound 0.01 µM): 0.839
- relative viability ([1]; first compound 0.03162 µM): 1.11
- relative viability ([1]; first compound 0.3162 µM): 1.05
- relative viability ([2]; first compound 0.01 µM): 1.3
- relative viability ([2]; first compound 0.03162 µM): 1.16
- relative viability ([3]; first compound 0.01 µM): 0.973
- relative viability ([3]; first compound 0.03162 µM): 1.16
- relative viability ([3]; first compound 0.3162 µM): 1.16
- relative viability ([4]; first compound 0.01 µM): 0.744
- relative viability ([4]; first compound 0.03162 µM): 0.798
- relative viability ([4]; first compound 0.3162 µM): 0.71
- relative viability ([5]; first compound 0.01 µM): 0.617
- relative viability ([5]; first compound 0.03162 µM): 0.662
- relative viability ([5]; first compound 0.3162 µM): 0.488
- relative viability ([6]; first compound 0.01 µM): 0.386
- relative viability ([6]; first compound 0.03162 µM): 0.474
- relative viability ([6]; first compound 0.3162 µM): 0.415
- relative viability ([7]; first compound 0.01 µM): 0.758
- relative viability ([7]; first compound 0.03162 µM): 0.82
- relative viability ([7]; first compound 0.3162 µM): 0.701
- relative viability ([8]; first compound 0.01 µM): 0.887
- relative viability ([8]; first compound 0.03162 µM): 1.11
- relative viability ([8]; first compound 0.3162 µM): 1.11
- relative viability ([9]; first compound 0.01 µM): 0.799
- relative viability ([9]; first compound 0.03162 µM): 0.845
- relative viability ([9]; first compound 0.3162 µM): 0.797
- relative viability ([10]; first compound 0.01 µM): 0.688
- relative viability ([10]; first compound 0.3162 µM): 0.916
- relative viability ([11]; first compound 0.01 µM): 1.16
- relative viability ([11]; first compound 0.03162 µM): 1.18
- relative viability ([11]; first compound 0.3162 µM): 1.19
- relative viability ([12]; first compound 0.01 µM): 1.31
- relative viability ([12]; first compound 0.03162 µM): 1.27
- relative viability ([12]; first compound 0.3162 µM): 1.11
- relative viability ([13]; first compound 0.01 µM): 0.835
- relative viability ([13]; first compound 0.03162 µM): 0.924
- relative viability ([13]; first compound 0.3162 µM): 0.774
- relative viability ([14]; first compound 0.01 µM): 0.858
- relative viability ([14]; first compound 0.03162 µM): 0.755
- relative viability ([14]; first compound 0.3162 µM): 0.818
- relative viability ([15]; first compound 0.01 µM): 1.12
- relative viability ([15]; first compound 0.03162 µM): 1.41
- relative viability ([15]; first compound 0.3162 µM): 1.44
- relative viability ([16]; first compound 0.01 µM): 1.15
- relative viability ([16]; first compound 0.03162 µM): 1.45
- relative viability ([16]; first compound 0.3162 µM): 1.19
- relative viability ([17]; first compound 0.01 µM): 0.989
- relative viability ([17]; first compound 0.03162 µM): 1.21
- relative viability ([17]; first compound 0.3162 µM): 1.1
- relative viability ([18]; first compound 0.01 µM): 0.991
- relative viability ([18]; first compound 0.03162 µM): 0.952
- relative viability ([18]; first compound 0.3162 µM): 0.833
- relative viability ([19]; first compound 0.01 µM): 0.271
- relative viability ([19]; first compound 0.03162 µM): 0.334
- relative viability ([19]; first compound 0.3162 µM): 0.304
